Experimental data from US20100267638A1, “EXOSITE-DIRECTED THROMBIN INHIBITORS” (CLEVELAND STATE UNIVERSITY, priority 2003, published 2010).
No end group written: not given here.

Experiments:
[1] = target: T1, prothrombinase (Homo sapiens, UniProt P00734); test: Assay measuring thrombin formation (prothrombinase inhibition by peptides, DAPA fluorescence); assay type: biochemical
T1 construct: purchased Haematologic Technologies Inc. (Essex Junction, Vt.)

[2] = target: thrombin (Homo sapiens, UniProt P00734); test: Activation of plasma factor V by thrombin preincubated with peptide (SDS-PAGE, immunoblotting); assay type: biochemical; design: Factor Xa cleaves prothrombin to form thrombin; purchased Haematologic Technologies Inc. (Essex Junction, Vt.); settings: thrombin 1 nM preincubated with 100 μM peptide, factor V 250 nM
Experimental: Gel Electrophoresis and western blotting. Sodium dodecyl sulfate polyacrylamide gel electrophoresis (SDS-PAGE) analyses were performed using 4-12% gradient gels according to the method of Laemmli. In several experiments, proteins were transferred to polyvinylidene difluoride (PVDF) membranes according to the method described by Towbin et al. After transfer to nitrocellulose, factor V heavy and light chain(s) were detected using the appropriate monoclonal and polyclonal antibodies. Immunoreactive fragments were visualized with chemiluminescence.
Factor V (250 nM) was incubated with thrombin (1 nM). And FIG. 4B illustrates thrombin (1 nM) was preincubated with 100 μM peptide DYDYQ and the mixture was added to factor V (250 nM). […] Fragments were identified following staining with monoclonal antibody αHFV#17 that recognizes an epitope between amino acid residues 307-506 of factor V and chemiluminescence as described. Lane 1 in both panels depicts aliquots of the mixture withdrawn from the reaction before the addition of thrombin or thrombin/peptide mixture while lanes 2-7 show aliquots of the reaction mixture withdrawn at 30 sec, 1 min, 3 min, 5 min, 10 min, 15 min following the addition of thrombin alone or of thrombin/peptide mixture. The time of incubation is shown at the bottom of the figure. Position of the molecular weight markers is indicated at left.

[3] = Clotting time as a function of peptide concentration (FIG. 12); settings: peptide 500 nM
Source text: FIG. 12 is a graph illustrating clotting time as a function of concentration of various peptides of interest as follows: DYDYQ (SEQ ID NO. 11) (filled squares); DYDYQ (1, 2) (or as designated in shorthand form, D5Q1,2) (SEQ ID NO. 9) (filled triangles); DYDYQ-1 (SEQ ID NO. 7) (filled inverted triangles); and DYDYQ-2 (SEQ ID NO. 8) (filled diamonds).

concentration at which complete inhibition of prothrombinase occurred ([1]; FIG. 3A): 40 µM | Ki ([1]; calculated from IC50 of 1.6 μM as in FIG. 2C legend, read-out: Ki for inhibition of prothrombinase): 850 nM | IC50 ([1]; factor Va 4 nM, factor Xa 10 nM, prothrombin 350 nM, PCPS 10 μM, peptide preincubated with factor Va): 1600 nM | inhibition of activation of factor V by thrombin (cleavage at Arg709) [2]: inhibited | inhibition of activation of factor V by thrombin (cleavage at Arg709) ([2]; listed as pentapeptide): potent inhibitor
Substance: DYDYQ [DYDYQ, Asp-Tyr-Asp-Tyr-Gln]
inhibition of prothrombinase activity with increasing peptide ([1]; FIG. 10A, up to 8000 nM): decrease in the activity of prothrombinase | clotting time [3]: relatively long clotting times
